Experimental data from US20150087004A1, “Microfabricated 3D Cell Culture System” (The Trustees of the University of Pennsylvania, priority 2012, published 2015).

System: Human umbilical vein endothelial cells (HUVECs)
Assay: Pro-angiogenic factor screening: directed invasion and sprouting from endothelialized parent vessel in 3D cell culture device
Format: cell-based
Settings: for EC invasion into the matrix (single cell or collective cell invasion): factor added individually to source channel, over four days, 75 ng/mL (S1P 500 nM); for mode of cell migration / sprouting response: factor or cocktail in source channel, gradient across collagen matrix
Source text: Examination the processes of angiogenic invasion and sprouting from an existing vessel in accordance with the disclosed subject matter will be described, with reference to FIG. 11A-D through FIG. 14A-F, for purpose of illustration and not limitation. Generally, a device in accordance with an embodiment of the disclosed subject matter can be prepared with an endothelium lining a cylindrical channel, surrounded by matrix, and exposed to a gradient of angiogenic factors emanating from a parallel source channel 150a. The device can be assembled by casting Type I collagen into a PDMS mold/gasket with two parallel needles held across the casting chamber. Upon collagen polymerization, the needles can be extracted to create hollow cylindrical channels in the collagen matrix 160. Endothelial cells (ECs) can be injected into one of the channels, allowing them to attach on the interior wall and form a confluent endothelium or “parent vessel” 150a. Flow can be maintained through both channels and media containing angiogenic factors can subsequently be added to the second channel to establish a gradient across the collagen matrix to the endothelium, as illustrated in FIG. 11B.
In a first example, the impact of various pro-angiogenic factors on directed invasion and sprouting from the parent vessel is examined. Six common factors associated with angiogenesis in the literature were selected: basic fibroblast growth factor (bFGF), hepatocyte growth factor (HGF), vascular endothelial growth factor (VEGF), monocyte chemotactic protein-1 (MCP-1), sphingosine-1-phosphate (S1P), and phorbol 12-myristate 13-acetate (PMA). After these factors were added individually to the non-endothelialized source channel, phase-contrast and confocal microscopy were used to assess the organization and development of EC invasion over four days.
In connection with the examples described herein, an exemplary device in accordance with the disclosed subject matter was fabricated from two patterned layers of poly(dimethylsiloxane) (PDMS; Sylgard 184; Dow-Corning) bonded to each other and sealed against a glass substrate (e.g., as depicted in FIG. 11A). The two PDMS layers were cast or double-cast from templates originally generated using standard photolithography of SU-8 on silicon wafers. To assemble the device, the bottom layer was first sealed to a glass coverslip. The top and bottom layers were then treated with oxygen plasma, bonded together, and cured at 110° C. overnight. Assembled devices then were treated with oxygen plasma, immersed in 0.1 mg/ml poly-L-lysine (Sigma) for 1 hr, 1% glutaraldehyde (Sigma) for 1.5 hr, washed several times with ddH2O, sterilized with UV light for 15 min, and soaked in 70% ethanol for 1 hr. To mold cylindrical channels, two 400 μm diameter acupuncture needles (Hwato) were inserted into parallel grooves at the top of the bottom layer and through the middle rectangular chamber approximately 200 μm above the glass coverslip surface. Rat tail collagen type I (2.5 mg/ml; BD Biosciences) was pipetted into the middle chamber and allowed to polymerize at 37° C. for 30 min. Excess collagen was subsequently aspirated from the fluid reservoirs feeding from the middle chamber. Devices were then covered with EGM-2 (Lonza) before the needles were extracted as described herein.
Cells were cultured and seeded in accordance with the disclosed subject matter into the device described in connection with the first example. Human umbilical vein endothelial cells (HUVECs) (Lonza) and human microvascular endothelial cells (HMVECs) (Lonza) were cultured in EGM-2 and EGM-2MV, respectively.

| Molecule | EC invasion into the matrix (single cell or collective cell invasion) | mode of cell migration / sprouting response |
| --- | --- | --- |
| CCCCCCCCCCCCC/C=C/[C@@H](O)[C@@H](N)COP(=O)(O)O [S1P, sphingosine-1-phosphate] | substantial directed invasion | chemotactic migration primarily of single cells |
| monocyte chemotactic protein-1 [MCP-1] | did not induce significant invasion |  |
| vascular endothelial growth factor [VEGF] | did not induce significant invasion |  |
| CCCCCCCCCCCCCC(=O)O[C@@H]1[C@@H](C)[C@@]2(O)[C@@H](C=C(CO)C[C@]3(O)C(=O)C(C)=C[C@@H]23)[C@@H]2C(C)(C)[C@]12OC(C)=O [PMA, phorbol 12-myristate 13-acetate] | substantial directed invasion | collective cell migration that manifested itself in the form of sparse, long, multi-cellular sprouts |
| basic fibroblast growth factor [bFGF] | did not induce significant invasion |  |
| hepatocyte growth factor [HGF] | did not induce significant invasion |  |
